One test concerns HT29 cell line. The experiment in a line: BrdU cell growth inhibition, HT29. The following applies: Homo sapiens; for activity at 0.05 µM / activity at 0.5 µM / activity at 5 µM: HT-29, read-out: HT-29 Growth, % of Control Mean, n = 3; for activity at 0.05 µM: 50 nM; for activity at 0.5 µM: 500 nM; for GI50: HT-29, HT29 (Colon) cells, read-out: GI50. It is filed as cell-based, human. As to the method: (§1) The GI50s for several of the compounds of the invention were assayed as described herein.
The HT29 cell line is a NCI standard human colon carcinoma cell line.
(§2) In the BrdU Assay for cell growth inhibition, quantitation of cell proliferation was based on the measurement of BrdU incorporation during DNA synthesis. The Cell Proliferation ELISA BrdU assay kit (colorimetric) was obtained from Roche Applied Science and performed as per vendor instructions.
(§3) The growth inhibition (GI) is determined from the formula GI=(T0−Tn×100/T0−CONn) where T0 is the BrdU growth of untreated cells at time “0”, Tn is the BrdU growth of treated cells at day “n” and CONn is the control BrdU growth of control cells at day “n”. The GI50 was extrapolated and the data plotted using XL-Fit 4.0 software.
(§4) For 96 well culture plate experiments, c-Src 3T3 medium was supplemented with 10 mM HEPES buffer. HT-29 cells were seeded in standard tissue culture 96-well plates and c-Src 3T3 cells were seeded in 96-well plates coated with Poly-D-lysine (BIOCOAT™). To increase CO2 diffusion, c-Src 3T3 96-well plates were incubated with their lids raised by ˜2 mm using sterile rubber caps.
(§5) Samples were reconstituted in DMSO at 20 mM and intermediate dilutions made using DMEM containing 10% FBS. […] Plates were assayed for BrdU and the data analyzed as above for GI50.
(§6) All compounds were initially prepared as 20 mM DMSO stock solutions and then diluted into buffer for the in vitro tumor growth assays. NG means no cell growth beyond the control and T means the number of cells in the drug treated wells was less than in the control (i.e. net cell loss).
Growth Inhibition. […] T1 values≤T0 values were designated as T, cytotoxicity.

A further test relates to c-Src 3T3 cells. Description: BrdU cell growth inhibition, c-Src 3T3. Format: cell-based, mouse. To be noted: Mus musculus; for activity at 0.1 µM / activity at 1 µM / activity at 10 µM: NIH3T3, read-out: c-Src 3T3 Growth, % of Control Mean, n = 3; for activity at 0.1 µM: 100 nM; for GI50: c-Src 3T3 (c-Src527F/NIH3T3) cells, read-out: GI50. As to the method:
as §1
The cells were routinely cultured in DMEM supplemented with Fetal Bovine Serum (2.0% v/V), L-glutamine (2 mM) and Sodium Pyruvate (1 mM).
as §2, §3, §4, §5, §6

This note sets out measurements from US10196357B2, “Biaryl compositions and methods for modulating a kinase cascade” (Athenex, Inc., priority 2007, dated 2019).

The structures appear in SMILES notation.

With `CCOc1ccc(-c2ccc(CC(=O)NCc3cc(F)cc(OCC(C)C)c3)nc2)cc1` [KX2-368], in the test with HT29 cell line, the activity at 0.05 µM was 107%, the activity at 0.5 µM is 70% and the activity at 5 µM is < 0%. In addition, in the test with c-Src 3T3 cells, the activity at 0.1 µM came out at 99%, the activity at 1 µM was determined as 101% and the activity at 10 µM was 27%.
A word on the GI50: it is the concentration that inhibits growth by half. For the molecule `CCOc1ccc(-c2ccc(CC(=O)NCc3cccc(F)c3)cn2)cc1` [KX1-325, 2-[6-(4-Ethoxy-phenyl)-pyridin-3-yl]-N-(3-fluoro-benzyl)-acetamide], in the test with HT29 cell line, the GI50 was 215 nM, the activity at 0.05 µM was 85%, the activity at 0.5 µM was < 0% and the activity at 5 µM was < 0%. Besides, in the test on c-Src 3T3 cells, the activity at 0.1 µM amounted to 97.6%, the activity at 1 µM came to 54.2%, the activity at 10 µM is < 0% and the GI50 is 207 nM.
Regarding `O=C(Cc1ccc(-c2cccc(F)c2)cc1)NCc1cccc(F)c1` [KX1-310, N-(3-fluorobenzyl)-4-(3-fluorophenyl)phenylacetamide], in the test on HT29 cell line, the activity at 0.05 µM was found to be 93.3%, the activity at 0.5 µM is < 0% and the activity at 5 µM is < 0%. Further, in the test with c-Src 3T3 cells, the activity at 0.1 µM came to 102%, the activity at 1 µM was < 0% and the activity at 10 µM is < 0%.
With `O=C(Cc1ccc(-c2cccc(Cl)c2)nc1)NCc1cccc(F)c1` [KX1-317, 2-[6-(3-Chloro-phenyl)-pyridin-3-yl]-N-(3-fluoro-benzyl)-acetamide], in the test on HT29 cell line, the activity at 0.05 µM is 83.5%, the activity at 0.5 µM was 64% and the activity at 5 µM was < 0%. In the test with c-Src 3T3 cells, the activity at 0.1 µM amounted to 94.2%, the activity at 1 µM worked out at 85.6% and the activity at 10 µM was < 0%.
Regarding `CN1CCN(c2ccc(-c3ccc(CC(=O)NCc4cccc(F)c4)nc3)cc2)CC1` [KX2-373], in the test on HT29 cell line, the GI50 worked out at 639 nM, the activity at 0.05 µM was determined as 64%, the activity at 0.5 µM is < 0% and the activity at 5 µM was < 0%. Further, in the test with c-Src 3T3 cells, the activity at 0.1 µM amounted to 97%, the activity at 1 µM was < 0%, the activity at 10 µM was < 0% and the GI50 is 96 nM.
As to `COc1cc(Nc2c(C#N)cnc3cc(OCCCN4CCN(C)CC4)c(OC)cc23)c(Cl)cc1Cl` [SKI-606], the GI50 in the test on HT29 cell line was 173 nM; with c-Src 3T3 cells, 208 nM.
For `CCOc1ccccc1-c1ccc(CC(=O)NCc2cc(F)cc(OCC(C)C)c2)nc1` [KX2-369], in the test with HT29 cell line, the activity at 0.05 µM amounted to 87%, the activity at 0.5 µM was determined as 72% and the activity at 5 µM is < 0%. In the test with c-Src 3T3 cells, the activity at 0.1 µM was 100%, the activity at 1 µM was 101% and the activity at 10 µM is < 0%.
With `CC(C)COc1cc(F)cc(CNC(=O)Cc2ccc(-c3ccc(N4CCCCC4)cc3)cn2)c1` [KX2-371], in the test on HT29 cell line, the activity at 0.05 µM stood at 98%, the activity at 0.5 µM was 33% and the activity at 5 µM came out at 16%. In the test with c-Src 3T3 cells, the activity at 0.1 µM stood at 75%, the activity at 1 µM was determined as 72% and the activity at 10 µM was 16%.
Turning to `CCOc1ccc(-c2ccc(CC(=O)NCc3cccc(F)c3)nc2)cc1` [KX2-359], in the test with HT29 cell line, the GI50 is 45 nM, the activity at 0.05 µM is < 0%, the activity at 0.5 µM was < 0% and the activity at 5 µM is < 0%. For the same molecule, in the test with c-Src 3T3 cells, the activity at 0.1 µM is < 0%, the activity at 1 µM is < 0%, the activity at 10 µM is < 0% and the GI50 was 34 nM.
In the case of `O=C(Cc1ccc(-c2ccc(CN3CCOCC3)cc2F)cn1)NCc1cccc(F)c1` [KX2-393], the GI50 with HT29 cell line came out at 52 nM; in the test with c-Src 3T3 cells, 24 nM.
Consider `CCOc1ccccc1-c1ccc(CC(=O)NCc2cccc(F)c2)nc1` [KX2-360], for which, in the test with HT29 cell line, the activity at 0.05 µM stood at 91%, the activity at 0.5 µM is < 0% and the activity at 5 µM is < 0%. Besides, in the test with c-Src 3T3 cells, the activity at 0.1 µM came to 106%, the activity at 1 µM was < 0% and the activity at 10 µM was < 0%.
On to `O=C(Cc1ccc(-c2ccc(OCCN3CCCCC3)cc2)cn1)NCc1cccc(F)c1` [KX2-375], for which, in the test with HT29 cell line, the GI50 was 354 nM, the activity at 0.05 µM turned out to be 99%, the activity at 0.5 µM was < 0% and the activity at 5 µM was < 0%. Besides, in the test on c-Src 3T3 cells, the activity at 0.1 µM is < 0%, the activity at 1 µM was < 0%, the activity at 10 µM was < 0% and the GI50 turned out to be 206 nM.
Take `CS(=O)(=O)c1ccc(-c2ccc(CC(=O)NCc3cccc(F)c3)cn2)cc1` [KX1-326, N-(3-Fluoro-benzyl)-2-[6-(4-methanesulfonyl-phenyl)-pyridin-3-yl]-acetamide]: in the test on HT29 cell line, the activity at 0.05 µM is 65.4%, the activity at 0.5 µM turned out to be 73.2% and the activity at 5 µM turned out to be 43.7%. In the test on c-Src 3T3 cells, the activity at 0.1 µM worked out at 92.2%, the activity at 1 µM turned out to be 87.3% and the activity at 10 µM was 55.7%.
